Source: ChEMBL document CHEMBL1177682, “Hypoxic selectivity and solubility--investigating the properties of A-ring substituted nitro seco-1,2,9,9a-tetrahydrocyclopropa[c]benz[e]indol-4-ones (nitroCBIs) as hypoxia-activated prodrugs for antitumor therapy” (Bioorg Med Chem, 2010)
pIC50: −log10 of the molar value. Activity calls are given as the source filed them. No cut-off for these calls is given here.

Legend:
[1] = tested on: HT-29; assay: Cytotoxicity against human HT-29 cells under aerobic condition after 5 days by SRB assay; format: functional, cell-based; details: HT-29, 120 h
[2] = tested on: SK-OV-3; assay: Hypoxic cytotoxicity ratio IC50 for human SKOV3 cells under aerobic condition to IC50 for human HT-29 cells under hypoxic condition; format: functional
[3] = tested on: SK-OV-3; assay: Cytotoxicity against human SKOV3 cells under aerobic condition after 5 days by SRB assay; format: functional, cell-based; details: SK-OV-3, 120 h
[4] = tested on: SK-OV-3; assay: Cytotoxicity against human SKOV3 cells under hypoxic condition after 5 days by SRB assay; format: functional, cell-based; details: SK-OV-3, 120 h
[5] = tested on: HT-29; assay: Hypoxic cytotoxicity ratio IC50 for human HT-29 cells under aerobic condition to IC50 for human HT-29 cells under hypoxic condition; format: functional
[6] = tested on: HT-29; assay: Cytotoxicity against human HT-29 cells under hypoxic condition after 5 days by SRB assay; format: functional, cell-based; details: HT-29, 120 h
[7] = AUC (0 to 180 mins) in CD1 mouse at 23.7 umol/kg, iv; format: ADME, organism-based; parameters: time < 3 hr, dose 23.7 umol/kg, route intravenous; details: plasma
[8] = Toxicity against human HT-29 xenografted ip dosed CD1 mouse assessed as maximum tolerated dose; format: organism-based; details: in vivo, read-out: Activity
[9] = Plasma concentration in CD1 mouse at 23.7 umol/kg, iv after 15 mins; format: ADME, organism-based
[10] = tested on: HT-29; assay: Antitumor activity against human HT-29 cells xenografted in CD1 mouse after 18 hrs; format: functional, cell-based

Compound | pIC50 [1] | Ratio IC50 [2] | pIC50 [3] | pIC50 [4] | Ratio IC50 [5] | pIC50 [6] | AUC(0-t) at 3 h [7] | MTD [8] | concentration at […] [9] | Activity [10]
CNS(=O)(=O)c1ccc2c3c(cc([N+](=O)[O-])c2c1)N(C(=O)c1cc2cc(OCCN(C)C)ccc2[nH]1)CC3CCl (stereo not given) | 5.57 | 21 | 5.59 | 6.92 | 24 | 6.89 |  |  |  | 
CNS(=O)(=O)c1ccc2c3c(cc(N)c2c1)N(C(=O)c1cc2cc(OCCN(C)C)ccc2[nH]1)CC3CCl (stereo not given) | 7.62 |  | 7.70 | 7.96 |  | 7.70 |  |  |  | 
CN(C)CCOc1ccc2[nH]c(C(=O)N3CC(CCl)c4c3cc([N+](=O)[O-])c3cc(N)ccc43)cc2c1 (stereo not given) | 5.74 | 2 | 5.60 | 5.89 | 2.4 | 6.12 |  |  |  | 
CN(C)CCOc1ccc2[nH]c(C(=O)N3CC(CCl)c4c3cc([N+](=O)[O-])c3cc(S(=O)(=O)NN)ccc43)cc2c1 (stereo not given) | 4.51 | 160 | 4.48 | 6.68 | 220 | 6.80 |  |  |  | 
CN(C)CCOc1ccc2[nH]c(C(=O)N3CC(CCl)c4c3cc([N+](=O)[O-])c3cc(S(N)(=O)=O)ccc43)cc2c1 (stereo not given) | 5.34 |  | 5.16 | 7.55 |  | 7.74 |  |  |  | 
CN(C)CCNS(=O)(=O)c1ccc2c3c(cc([N+](=O)[O-])c2c1)N(C(=O)c1cc2cc(OCCN(C)C)ccc2[nH]1)CC3CCl (stereo not given) | 6.14 | 130 | 6.08 | 8.18 | 110 | 8.05 | < 0.03 µM·h | 23.7 µmol/kg | < 10 nM | inactive
COc1cc2cc(C(=O)N3CC(CCl)c4c3cc([N+](=O)[O-])c3ccc(C(=O)NCCN(C)C)cc43)[nH]c2c(OC)c1OC (stereo not given) | 5.89 | 16 | 5.60 | 6.74 | 2.4 | 6.27 |  |  |  | 
CN(C)CCOc1ccc2[nH]c(C(=O)N3CC(CCl)c4c3cc([N+](=O)[O-])c3cc(S(=O)(=O)NO)ccc43)cc2c1 (stereo not given) | 4.62 | 55 | 4.62 | 6.35 | 160 | 6.82 |  |  |  | 
COc1cc2cc(C(=O)N3CC(CCl)c4c3cc([N+](=O)[O-])c3cc(C(=O)NCCN(C)C)ccc43)[nH]c2c(OC)c1OC (stereo not given) | 5.82 | 24 | 5.70 | 6.85 | 5.9 | 6.52 |  |  |  | 
CN(C)CCOc1ccc2[nH]c(C(=O)N3CC(CCl)c4c3cc([N+](=O)[O-])c3cc(S(=O)(=O)N(C)C)ccc43)cc2c1 (stereo not given) | 5.96 | 2.4 | 6.30 | 6.68 | 3.6 | 6.43 |  |  |  | 
